{"source": "patent US20230242948A1", "about": "“OLEIC ACID PRODUCED FROM MICROORGANISM AND METHOD FOR PRODUCING OLEIC ACID USING MICROORGANISM” (KOREA INSTITUTE OF SCIENCE AND TECHNOLOGY, priority 2022, published 2023)", "format_in_all_cases": "cell-based", "key": {"[1]": {"tested_on": "recombinant Yarrowia lipolytica", "experiment": "Culture of recombinant lipid-producing microorganism (peroxisomal biogenesis factor 10 deleted, diacylglycerol acyltransferase overexpressed) in glucose minimal medium with or without hexanoic acid (Test Example 1)", "method": "(§1) As an exemplary embodiment of the present disclosure, after deleting peroxisomal biogenesis factor 10 (SEQ ID NO 1), which is a lipid degradation-related gene, from the wild-type Yarrowia lipolytica (microorganism accession number ATCC MYA-2613) of Example 1 using the CRISPR/Cas9 system, a lipid-producing microorganism was prepared by overexpressing diacylglycerol acyltransferase, which is a key gene in a lipid-producing metabolic pathway, using a vector (pMCS-12TEF-DGA1-CYC1t, SEQ ID NO 3) comprising a UAS1B enhancer, a TEF (translational elongation factor) promoter and a gene encoding diacylglycerol acyltransferase (SEQ ID NO 2). Then, after inoculating the microorganism to a minimal medium containing glucose as a carbon source (20 g/L glucose, 6.7 g/L yeast nitrogen base, CSM-ura (MP Biomedicals, Solon, USA), pH 6.8 potassium phosphate buffer) and supplemented with 1 g/L hexanoic acid, shaking culture was conducted at 28° C. and 200 rpm. After culturing for 144-168 hours, the microorganism was separated from the culture through centrifugation.\nas §1, with “After” for “As an exemplary embodiment of the present disclosure, after”, “buffer),” for “buffer) and supplemented with 1 g/L hexanoic acid,”\n(§2) In order to investigate the consumption of the carbon source in the medium and the content of the produced lipids depending on the addition of hexanoic acid during the culturing of the lipid-producing microorganisms, the amount of biomass (dry cell weight) and lipids produced from the microorganisms isolated in Examples 1-2 and Comparative Examples 1-2 was measured. The amount of produced oleic acid was calculated through lipid assay and the amount of consumed glucose was measured form the separated cultures."}, "[2]": {"tested_on": "transformed Yarrowia lipolytica", "experiment": "Oleic acid production depending on concentration of added hexanoic acid, glucose and xylose medium (Test Example 2)", "conditions": "for oleic acid concentration increased by / oleic acid content increased by / oleic acid concentration: 168 hours; for oleic acid concentration increased by / oleic acid content increased by: vs Comparative Example 3; for oleic acid concentration: 0.377 g/L without hexanoic acid", "method": "Specifically, wild-type Yarrowia lipolytica was transformed in the same manner as in Example 2 and hexanoic acid at 0 g/L (Comparative Example 3), 0.2 g/L (Example 3), 0.6 g/L (Example 4) or 1 g/L (Example 5) was added to a minimal medium containing 20 g/L glucose and 10 g/L xylose as carbon sources (20 g/L glucose, 10 g/L xylose, 6.7 g/L yeast nitrogen base, CSM-ura (MP Biomedicals, Solon, USA), pH 6.8 potassium phosphate buffer). Then, after inoculating the transformed microorganism to the medium, shaking culture was conducted at 28° C. and 200 rpm. After culturing for 168 hours, the microorganism was separated from the culture through centrifugation and the amount of produced lipids was measured from the separated strain. The amount of produced oleic acid was calculated through lipid assay and the amount of glucose and xylose consumed as carbon sources was measured from the separated culture."}, "[3]": {"tested_on": "wild-type Yarrowia lipolytica (ATCC MYA-2613)", "experiment": "Culture of wild-type lipid-producing microorganism in glucose minimal medium with or without hexanoic acid (Test Example 1)", "conditions": "1 g/L hexanoic acid", "method": "(§3) As an exemplary embodiment of the present disclosure, wild-type Yarrowia lipolytica (microorganism accession number ATCC MYA-2613) was inoculated to a minimal medium containing glucose as a carbon source (20 g/L glucose, 6.7 g/L yeast nitrogen base, CSM-ura (MP Biomedicals, Solon, USA), pH 6.8 potassium phosphate buffer) and supplemented with 1 g/L hexanoic acid. Then shaking culture was conducted at 28° C. and 200 rpm. After culturing for 144-168 hours, the microorganism was separated from the culture through centrifugation.\nas §3, with “After inoculating” for “As an exemplary embodiment of the present disclosure,”, “MYA-2613)” for “MYA-2613) was inoculated”, “buffer),” for “buffer) and supplemented with 1 g/L hexanoic acid. Then”\nas §2"}, "[4]": {"conditions": "Example 3, 0.2 g/L hexanoic acid"}, "[5]": {"conditions": "Example 4, 0.6 g/L hexanoic acid"}}, "data": [{"smiles": "CCCCCC(=O)O", "note": "[hexanoic acid]", "values": [{"measurement": "increase of lipid production as compared to Comparative Example 2", "setting": "[1]; 1 g/L hexanoic acid, 144-168 hours, FIG. 2", "result": "about 10%"}, {"measurement": "consumption rate of the carbon source glucose", "setting": "[1]; Example 2, 1 g/L hexanoic acid, 20 g/L glucose, 28° C., FIG. 1", "result": "increased"}, {"measurement": "intracellular lipid content", "setting": "[1]; Example 2, 1 g/L hexanoic acid, 50.3% without hexanoic acid (Comparative Example 2)", "result": 73.8, "unit": "%"}, {"measurement": "content of oleic acid in the produced lipids", "setting": "[1]; Example 2, 1 g/L hexanoic acid, FIG. 3", "result": "~61", "unit": "%"}, {"measurement": "relative oleic acid production as compared to Comparative Example 1 (wild-type strain, medium not comprising hexanoic acid)", "setting": "[1]; Example 2, recombinant strain plus 1 g/L hexanoic acid, FIG. 4", "result": "about 3.3 times"}, {"measurement": "oleic acid concentration increased by", "setting": "[2]; [4]", "result": 10.5, "unit": "%"}, {"measurement": "oleic acid content increased by", "setting": "[2]; [4]", "result": 27.4, "unit": "%"}, {"measurement": "oleic acid concentration", "setting": "[2]; [4]", "result": 0.417, "unit": "g/L"}, {"measurement": "oleic acid concentration increased by", "setting": "[2]; [5]", "result": 40.3, "unit": "%"}, {"measurement": "oleic acid content increased by", "setting": "[2]; [5]", "result": 40.1, "unit": "%"}, {"measurement": "oleic acid concentration", "setting": "[2]; [5]", "result": 0.529, "unit": "g/L"}, {"measurement": "oleic acid concentration increased by", "setting": "[2]; Example 5, 1 g/L hexanoic acid", "result": 61.2, "unit": "%"}, {"measurement": "oleic acid content increased by", "setting": "[2]; Example 5, 1 g/L hexanoic acid", "result": 52.1, "unit": "%"}, {"measurement": "oleic acid concentration", "setting": "[2]; Example 5, 1 g/L hexanoic acid", "result": 0.608, "unit": "g/L"}, {"measurement": "consumption of xylose", "setting": "[2]; hexanoic acid added to medium with 20 g/L glucose and 10 g/L xylose, FIG. 8", "result": "increased remarkably"}, {"measurement": "lipid production (in words)", "setting": "[3]", "result": "not increased significantly"}, {"measurement": "consumption rate of the carbon source glucose", "setting": "[3]; 20 g/L glucose, 28° C., FIG. 1", "result": "increased"}, {"measurement": "increase of lipid production as compared to Comparative Example 1", "setting": "[3]; 144-168 hours, FIG. 2", "result": "about 10%"}, {"measurement": "content of oleic acid in the produced lipids", "setting": "[3]; FIG. 3", "result": 66, "unit": "%"}]}]}
